Data reported in patent US6635641B2 (Agouron Pharmaceuticals, Inc., priority 2000, dated 2003).

Columns and labels:
[1] = biological target: T1, phosphorylated VEGF-R2Δ50 (FLVK-P) (Homo sapiens, UniProt P35968, DEL940-989/E990V); experiment: VEGF-R2 coupled spectrophotometric assay, phosphorylated construct (FLVK-P); type: biochemical
T1 construct: VEGF-R2Δ50 contains residues 806-939 and 990-1171; made in house; host or cells: baculovirus/insect cells
In short: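 Continuous PK/LDH-coupled spectrophotometric read (NADH loss at 340 nm) with 5–40 nM enzyme in 200 mM Hepes pH 7.5. Phosphorylated construct run at 1 mM ATP, 25 mM MgCl2, 5.1 mM poly(E4Y1); unphosphorylated at 3 mM ATP, 60 mM MgCl2 plus 2 mM MnCl2, 20 mM poly(E4Y1). Ki values derived from varied inhibitor concentrations.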

[2] = biological target: T2, FGF-R1 intracellular kinase domain (Homo sapiens, UniProt P11362, C488A/C584S/L457V); experiment: FGF-R spectrophotometric assay; type: biochemical; settings: for Ki: read-out: FGF-P Ki;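 for all read-outs here: coupled PK/LDH enzyme assay: ADP from kinase phosphoryl transfer drives NADH oxidation, read as absorbance decrease at 340 nm, with 2 mM ATP and poly(E4Y1) substrate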
T2 construct: starting from the endogenous methionine residue 456 to glutamate 766; made in house; host or cells: baculovirus expression system
T2 sequence (P11362 456-766 L457V/C488A/C584S): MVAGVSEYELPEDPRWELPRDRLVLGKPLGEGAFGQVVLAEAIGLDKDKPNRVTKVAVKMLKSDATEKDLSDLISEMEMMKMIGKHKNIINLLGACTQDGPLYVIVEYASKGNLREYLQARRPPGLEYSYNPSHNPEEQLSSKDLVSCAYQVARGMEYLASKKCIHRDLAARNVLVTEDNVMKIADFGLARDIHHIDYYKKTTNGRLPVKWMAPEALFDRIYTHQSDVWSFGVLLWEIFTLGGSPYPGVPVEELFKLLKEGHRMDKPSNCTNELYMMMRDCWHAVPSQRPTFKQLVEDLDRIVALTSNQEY

CDK2/Cyclin A complex = CDK2/Cyclin A complex (Homo sapiens, UniProt P24941); experiment: CDK2/Cyclin A assay ([32P]ATP incorporation into Rb fragment); type: biochemical; settings: read-out: CDK2 percent inhibition
Method: CDK2 was purified using published methodology (Rosenblatt et al., J. Mol. Biol., 230, 1317-1319 (1993)) from insect cells that had been infected with a baculovirus expression vector. Cyclin A was purified from E. coli cells expressing full-length recombinant cyclin A, and a truncated cyclin A construct was generated by limited proteolysis and purified as described previously (Jeffrey et al., Nature, 376, 313-320 (1995)).
Cyclin-dependent kinase activity was measured by quantifying the enzyme-catalyzed, time-dependent incorporation of radioactive phosphate from [^32P]ATP into a recombinant fragment of the retinoblastoma protein. Unless noted otherwise, assays were performed in 96-well plates in a total volume of 50 μL, in the presence of 10 mM HEPES (N-[2-hydroxyethyl]piperazine-N′-[2-ethanesulfonic acid]) (pH 7.4), 10 mM MgCl2, 25 μM adenosine triphosphate (ATP), 1 mg/mL ovalbumin, 5 μg/mL leupeptin, 1 mM dithiothreitol, 10 mM β-glycerophosphate, 0.1 mM sodium vanadate, 1 mM sodium fluoride, 2.5 mM ethylene glycol-bis(β-aminoethyl ether)-N,N,N′N′-tetraacetic acid (EGTA), 2% (v/v) dimethylsulfoxide, and 0.03-0.2 μCi [^32P]ATP. The substrate (0.3-0.5 μg) was purified recombinant retinoblastoma protein fragment (Rb) (residues 386-928 of the native retinoblastoma protein; 62.3 kDa, containing the majority of the phosphorylation sites found in the native 106-kDa protein, as well as a tag of six histidine residues for ease of purification). Reactions were initiated with CDK2 (150 nM CDK2/Cyclin A complex) or CDK4 (50 nM CDK4/Cyclin D3 complex), incubated at 30° C., and terminated after 20 minutes by the addition of ethylenediaminetetraacetic acid (EDTA) to 250 mM. The phosphorylated substrate was then captured on a nitrocellulose membrane using a 96-well filtration manifold, and unincorporated radioactivity was removed by repeated washing with 0.85% phosphoric acid. Radioactivity was quantified by exposing the dried nitrocellulose membranes to a phosphorimager. Apparent Ki values were measured by assaying enzyme activity in the presence of different compound concentrations and subtracting the background radioactivity measured in the absence of enzyme. The kinetic parameters (kcat, Km for ATP) were measured for each enzyme under the usual assay conditions by determining the dependence of initial rates on ATP concentration. The data were fit to an equation for competitive inhibition using Kaleidagraph (Synergy Software), or were fit to an equation for competitive tight-binding inhibition using the software KineTic (BioKin, Ltd.). Measured Ki values for known inhibitors against CDK4 and CDK2 agreed with published IC50 values. […]

CDK4/Cyclin D3 complex = biological target: T3, CDK4/Cyclin D3 complex (Homo sapiens, UniProt P11802); experiment: CDK4/Cyclin D assay ([32P]ATP incorporation into Rb fragment); type: biochemical; settings: read-out: CDK4 percent inhibition
T3 construct: made in house; host or cells: insect cells co-infected with baculovirus vectors
T3 sequence (P11802 whole entry, the tested form may be a part): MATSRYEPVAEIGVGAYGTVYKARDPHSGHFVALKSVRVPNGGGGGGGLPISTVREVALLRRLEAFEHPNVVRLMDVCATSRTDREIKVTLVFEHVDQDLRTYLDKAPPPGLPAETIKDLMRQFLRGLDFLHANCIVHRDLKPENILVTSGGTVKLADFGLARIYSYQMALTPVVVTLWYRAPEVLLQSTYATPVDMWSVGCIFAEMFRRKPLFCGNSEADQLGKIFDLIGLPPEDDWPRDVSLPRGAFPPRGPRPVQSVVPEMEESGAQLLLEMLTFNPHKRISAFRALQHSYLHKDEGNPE
T3 sequence (P30281 whole entry partner, the tested form may be a part): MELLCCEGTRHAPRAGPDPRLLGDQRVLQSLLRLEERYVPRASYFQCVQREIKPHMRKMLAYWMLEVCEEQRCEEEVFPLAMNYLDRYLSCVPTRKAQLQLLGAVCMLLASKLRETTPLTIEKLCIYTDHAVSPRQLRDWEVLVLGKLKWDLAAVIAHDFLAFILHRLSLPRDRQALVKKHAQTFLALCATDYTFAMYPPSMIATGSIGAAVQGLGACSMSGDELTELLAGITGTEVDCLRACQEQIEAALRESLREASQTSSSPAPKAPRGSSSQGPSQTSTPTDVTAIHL
Method: A complex of human CDK4 and cyclin D3, or a complex of cyclin D1 and a fusion protein of human CDK4 and glutathione-S-transferase (GST-CDK4), was purified using traditional biochemical chromatographic techniques from insect cells that had been co-infected with the corresponding baculovirus expression vectors.
Cyclin-dependent kinase activity was measured by quantifying the enzyme-catalyzed, time-dependent incorporation of radioactive phosphate from [^32P]ATP into a recombinant fragment of the retinoblastoma protein. Unless noted otherwise, assays were performed in 96-well plates in a total volume of 50 μL, in the presence of 10 mM HEPES (N-[2-hydroxyethyl]piperazine-N′-[2-ethanesulfonic acid]) (pH 7.4), 10 mM MgCl2, 25 μM adenosine triphosphate (ATP), 1 mg/mL ovalbumin, 5 μg/mL leupeptin, 1 mM dithiothreitol, 10 mM β-glycerophosphate, 0.1 mM sodium vanadate, 1 mM sodium fluoride, 2.5 mM ethylene glycol-bis(β-aminoethyl ether)-N,N,N′N′-tetraacetic acid (EGTA), 2% (v/v) dimethylsulfoxide, and 0.03-0.2 μCi [^32P]ATP. The substrate (0.3-0.5 μg) was purified recombinant retinoblastoma protein fragment (Rb) (residues 386-928 of the native retinoblastoma protein; 62.3 kDa, containing the majority of the phosphorylation sites found in the native 106-kDa protein, as well as a tag of six histidine residues for ease of purification). Reactions were initiated with CDK2 (150 nM CDK2/Cyclin A complex) or CDK4 (50 nM CDK4/Cyclin D3 complex), incubated at 30° C., and terminated after 20 minutes by the addition of ethylenediaminetetraacetic acid (EDTA) to 250 mM. The phosphorylated substrate was then captured on a nitrocellulose membrane using a 96-well filtration manifold, and unincorporated radioactivity was removed by repeated washing with 0.85% phosphoric acid. Radioactivity was quantified by exposing the dried nitrocellulose membranes to a phosphorimager. Apparent Ki values were measured by assaying enzyme activity in the presence of different compound concentrations and subtracting the background radioactivity measured in the absence of enzyme. The kinetic parameters (kcat, Km for ATP) were measured for each enzyme under the usual assay conditions by determining the dependence of initial rates on ATP concentration. The data were fit to an equation for competitive inhibition using Kaleidagraph (Synergy Software), or were fit to an equation for competitive tight-binding inhibition using the software KineTic (BioKin, Ltd.). Measured Ki values for known inhibitors against CDK4 and CDK2 agreed with published IC50 values. The specific activity of CDK4 was the same whether complexed to full-length cyclin D3 or the truncated Cyclin D3 construct; both complexes also yielded very similar Ki values for selected inhibitors.

T1 sequence (P35968 with tags, fused parts or gaps DEL940-989/E990V limits assumed): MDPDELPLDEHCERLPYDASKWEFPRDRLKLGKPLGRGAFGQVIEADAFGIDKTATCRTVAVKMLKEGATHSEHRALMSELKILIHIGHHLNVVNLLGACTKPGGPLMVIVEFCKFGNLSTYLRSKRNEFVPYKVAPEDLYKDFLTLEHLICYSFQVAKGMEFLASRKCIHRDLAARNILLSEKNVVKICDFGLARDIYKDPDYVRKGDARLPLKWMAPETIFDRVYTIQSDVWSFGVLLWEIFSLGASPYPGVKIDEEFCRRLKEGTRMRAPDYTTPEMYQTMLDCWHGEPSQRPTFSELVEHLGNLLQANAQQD

Row | Ki [1] | inhibition at 5 µM ([2]; at 5 μM, read-out: FGF-P percent inhibition) | inhibition at 100 µM (CDK2/Cyclin A complex; @ 100 μM) | inhibition at 100 µM (CDK4/Cyclin D3 complex; @ 100 μM) | melting point | Ki [2] | inhibition at 1 µM (CDK4/Cyclin D3 complex) | inhibition at 1 µM (CDK2/Cyclin A complex) | inhibition at 1 µM ([2]; @ 1 μM, read-out: FGF-P percent inhibition) | Compound
1 | 2.21 nM | 36% | 23% | 40% | 172 to 174 °C | – | – | – | – | Cc1ccc2cc(NC(=O)c3cccc(SCc4cc(Nc5ccccc5)n[nH]4)c3)ccc2n1 [Example E-1, N-(2-methyl-quinolin-6-yl)-3-[{5-(phenylamino)-2-H-pyrazol-3-yl}methylsulfanyl]benzamide]
2 | 0.17 nM | – | – | – | – | 19 nM | 16% | – | – | O=C(Nc1ccc(N2CCCC2)c(C(F)(F)F)c1)c1cccc(CCc2cc(Nc3cccnc3)n[nH]2)c1 [Example G-11]
3 | 2.19 nM | – | – | – | – | 26 nM | 17% | 12% | – | Cc1cc(NC(=O)c2ccc(F)c(OCc3cncc4ccccc34)c2)ccc1C(C)C [Example K-10, N-(4-Isopropyl-3-methyl-phenyl)-4-fluoro-3-(Isoquinolin-4-yl)methoxy-benzamide]
4 | 3.74 nM | – | – | – | – | – | 19% | 18% | 12% | CC(=O)Nc1ccc(COc2cccc(C(=O)Nc3ccc4nc(C)ccc4c3)c2)cn1 [Example N-1, 3-(6-Acetylaminopyridin-3-yl)methoxy-N-(2-methyl-quinolin-6-yl)-benzamide]
